Source: US10105357B2, “Indication of antibiotic drugs for preparation of cancer inhibition pharmaceutical composition” (LAUNX BIOMEDICAL CO., LTD., priority 2014, dated 2018)
Read-outs that look alike come from different tables or passages of the source.

What was measured:
[1] = system: SAS (Tongue squamous cell carcinoma); test: Cell viability analysis, tongue cancer SAS; type: cell-based, human; conditions: Homo sapiens, 72 h, read-out: The results of antibiotic drug inhibiting cancer cell lines (cell viability analysis), SAS
[2] = system: AGS (Gastric Adenocarcinoma); test: Cell viability analysis, gastric cancer AGS; type: cell-based, human; conditions: Homo sapiens, 72 h
[3] = system: HI650 (Lung Adenocarcinoma); test: Cell viability analysis, lung cancer HI650; type: cell-based, human; conditions: Homo sapiens, NCI-H1650, 72 h
[4] = system: MKN-45 (Gastric Adenocarcinoma); test: Cell viability analysis, gastric cancer MKN-45; type: cell-based, human; conditions: Homo sapiens, MKN-45, 72 h
NIH: OVCAR-3 = test: Cell viability analysis, ovarian cancer NIH: OVCAR-3; type: cell-based, human; conditions: Homo sapiens, OVCAR-3, 72 h, read-out: The results of antibiotic drug inhibiting cancer cell lines (cell viability analysis), NIH-OVCAR-3
[5] = system: MDA-MB-231 (Mammary Gland, Adenocarcinoma); test: Cell viability analysis, breast cancer MDA-MB-231; type: cell-based, human; conditions: Homo sapiens, MDA-MB-231, 72 h, read-out: The results of antibiotic drug inhibiting cancer cell lines (cell viability analysis), MDA-MB231
[6] = system: HeLa (Cervix Adenocarcinoma); test: Cell viability analysis, cervical cancer HeLa; type: cell-based, human; conditions: Homo sapiens, HeLa, 72 h
[7] = system: 786-O (Renal adenocarcinoma); test: Cell viability analysis, renal cancer 786-O; type: cell-based, human; conditions: Homo sapiens, 786-0, 72 h, read-out: The results of antibiotic drug inhibiting cancer cell lines (cell viability analysis), 786-O
[8] = system: TSGH-8301 (Urinary Bladder Carcinoma); test: Cell viability analysis, bladder cancer TSGH-8301; type: cell-based, human; conditions: Homo sapiens, 72 h
[9] = system: MCF7 (Mammary Gland, Adenocarcinoma); test: Cell viability analysis, breast cancer MCF7; type: cell-based, human; conditions: Homo sapiens, MCF7, 72 h
U-2OS = test: Cell viability analysis, osteosarcoma U-2OS; type: cell-based, human; conditions: Homo sapiens, U2OS, 72 h, read-out: The results of antibiotic drug inhibiting cancer cell lines (cell viability analysis), U2OS
[10] = system: HL-60 (Acute Promyelocytic Leukemia); test: Cell viability analysis, leukemia HL-60; type: cell-based, human; conditions: Homo sapiens, HL-60, 72 h, read-out: cell viability (survival rate), HL-60, drug 10 μM, 72 hours, WST-1, OD450 nm
AsPC-1 = test: Cell viability analysis, pancreatic cancer AsPC-1; type: cell-based, human; conditions: Homo sapiens, ASPC1, 72 h, read-out: The results of antibiotic drug inhibiting cancer cell lines (cell viability analysis), AsPC-1
[11] = system: LoVo (Colorectal Adenocarcinoma); test: Cell viability analysis, colon cancer LoVo; type: cell-based, human; conditions: Homo sapiens, LoVo, 72 h
[12] = system: Hep3B (hepatocellular carcinoma); test: Cell viability analysis, hepatic cancer Hep3B; type: cell-based, human; conditions: Homo sapiens, Hep3B, 72 h, read-out: The results of antibiotic drug inhibiting cancer cell lines (cell viability analysis), Hep3B
T24 = test: Cell viability analysis, bladder cancer T24; type: cell-based, human; conditions: Homo sapiens, T-24, 72 h, read-out: The results of antibiotic drug inhibiting cancer cell lines (cell viability analysis), T24
[13] = system: HepG2 (Hepatocellular Carcinoma); test: Cell viability analysis, hepatic cancer HepG2; type: cell-based, human; conditions: Homo sapiens, HepG2, 72 h
TOV-21G = test: Cell viability analysis, ovarian cancer TOV-21G; type: cell-based, human; conditions: Homo sapiens, TOV21G, 72 h, read-out: The results of antibiotic drug inhibiting cancer cell lines (cell viability analysis), TOV-21G
[14] = system: C-33A (Cervical carcinoma); test: Cell viability analysis, cervical cancer C-33A; type: cell-based, human; conditions: Homo sapiens, C-33-A, 72 h, read-out: The results of antibiotic drug inhibiting cancer cell lines (cell viability analysis), C-33A
[15] = system: A375 (Amelanotic Melanoma); test: Cell viability analysis, skin cancer A375; type: cell-based, human; conditions: Homo sapiens, A-375, 72 h
[16] = system: HCT116 (p53+) (Colorectal Carcinoma)
cancer cell lines = test: Cell viability analysis (WST-1) on cancer cell lines; type: cell-based, human; conditions: drug 10 μM, 72 hours, WST-1; Table 3
[17] = system: BCC (basal cell carcinoma); test: Cell viability analysis, skin cancer BCC; type: cell-based, human; conditions: Homo sapiens, 72 h, read-out: The results of antibiotic drug inhibiting cancer cell lines (cell viability analysis), BCC
[18] = system: A549 (Lung Adenocarcinoma); test: Cell viability analysis, lung cancer A549; type: cell-based, human; conditions: Homo sapiens, A549, 72 h

CC(NC(C)(C)C)C(=O)c1cccc(Cl)c1 (stereo not shown) [Amfebutamone (Bupropion), Amfebutamone]
viability at 10 µM [1]: 110%
viability at 10 µM ([2]; read-out: The results of antibiotic drug inhibiting cancer cell lines (cell viability analysis), AGS, repeated experiment): 117%
viability at 10 µM ([2]; read-out: cell viability (survival rate), AGS, drug 10 μM, 72 hours, WST-1, OD450 nm): 30%
viability at 10 µM ([3]; read-out: The results of antibiotic drug inhibiting cancer cell lines (cell viability analysis), H1650, H1650, repeated experiment): 96%
viability at 10 µM ([3]; read-out: cell viability (survival rate), H1650, drug 10 μM, 72 hours, WST-1, OD450 nm): 74.3%
viability at 10 µM ([4]; read-out: The results of antibiotic drug inhibiting cancer cell lines (cell viability analysis), MKN-45, MKN-45, repeated experiment): 103%
viability at 10 µM ([4]; read-out: cell viability (survival rate), MKN-45, drug 10 μM, 72 hours, WST-1, OD450 nm): 52.1%
viability at 10 µM (NIH: OVCAR-3): 109%
viability at 10 µM [5]: 80.3%
viability at 10 µM ([6]; read-out: The results of antibiotic drug inhibiting cancer cell lines (cell viability analysis), HeLa, repeated experiment): 84.5%
viability at 10 µM ([6]; read-out: cell viability (survival rate), HeLa, drug 10 μM, 72 hours, WST-1, OD450 nm): 53.4%
viability at 10 µM [7]: 103%
viability at 10 µM ([8]; read-out: The results of antibiotic drug inhibiting cancer cell lines (cell viability analysis), TSGH-8301, TSGH-8301, repeated experiment): 116%
viability at 10 µM ([8]; read-out: cell viability (survival rate), TSGH, drug 10 μM, 72 hours, WST-1, OD450 nm): 44.9%
viability at 10 µM ([9]; read-out: The results of antibiotic drug inhibiting cancer cell lines (cell viability analysis), MCF-7, MCF-7, repeated experiment): 69%
viability at 10 µM ([9]; read-out: cell viability (survival rate), MCF7, drug 10 μM, 72 hours, WST-1, OD450 nm): 64.7%
viability at 10 µM (U-2OS): 92.3%
viability at 10 µM [10]: 118%
viability at 10 µM (AsPC-1): 84.3%
viability at 10 µM ([11]; read-out: The results of antibiotic drug inhibiting cancer cell lines (cell viability analysis), LoVo, repeated experiment): 115%
viability at 10 µM ([11]; read-out: cell viability (survival rate), LoVo, drug 10 μM, 72 hours, WST-1, OD450 nm): 51.4%
viability at 10 µM [12]: 82.1%
viability at 10 µM (T24): 99.6%
viability at 10 µM ([13]; read-out: The results of antibiotic drug inhibiting cancer cell lines (cell viability analysis), HepG2, HepG2, repeated experiment): 92.3%
viability at 10 µM ([13]; read-out: cell viability (survival rate), HepG2, drug 10 μM, 72 hours, WST-1, OD450 nm): 85.1%
viability at 10 µM (TOV-21G): 97.5%
viability at 10 µM [14]: 107%
viability at 10 µM ([15]; read-out: The results of antibiotic drug inhibiting cancer cell lines (cell viability analysis), A375, A375, repeated experiment): 88.4%
viability at 10 µM ([15]; read-out: cell viability (survival rate), A375, drug 10 μM, 72 hours, WST-1, OD450 nm): 88.2%
viability [16]: 78.3%
inhibition effect on different cancer cell lines (cancer cell lines): significant inhibition effect
viability at 10 µM [17]: 77.5%
viability at 10 µM ([18]; read-out: The results of antibiotic drug inhibiting cancer cell lines (cell viability analysis), A549, A549, repeated experiment): 69.1%
viability at 10 µM ([18]; read-out: cell viability (survival rate), A549, drug 10 μM, 72 hours, WST-1, OD450 nm): 59.2%
